Data: ChEMBL document CHEMBL1130625, “Synthesis and antibacterial activity of novel 7-(3-substituted-3 or 4-trifluoromethyl-1-pyrrolidinyl)-8-methoxyfluoroquinolones” (1998)
Values after ≈ are worked out from the molar mass of the structure shown.

Key:
Enterococcus faecalis = experiment: Compound was tested for antibacterial activity against gram positive Enterococcus faecalis 1373; type: functional
Pseudomonas aeruginosa [1] = experiment: Compound was tested for antibacterial activity against gram negative Pseudomonas aeruginosa PAO1; type: functional
[2] = tested on: Acinetobacter calcoaceticus; experiment: Compound was tested for antibacterial activity against gram negative Acinetobacter calcoaceticus No.4; type: functional
Staphylococcus aureus [3] = experiment: Compound was tested for antibacterial activity against gram positive Staphylococcus aureus JS-1; type: functional
Staphylococcus aureus [4] = experiment: Compound was tested for antibacterial activity against gram positive Staphylococcus aureus KP-90-3; type: functional
Escherichia coli [5] = experiment: Compound was tested for antibacterial activity against gram negative Escherichia coli CSH2/RK1; type: functional
Klebsiella pneumoniae [6] = experiment: Compound was tested for antibacterial activity against gram negative Klebsiella pneumoniae No.42; type: functional
Escherichia coli [7] = experiment: Compound was tested for antibacterial activity against gram negative Escherichia coli NIHJ JC-2; type: functional
Escherichia coli [8] = experiment: Compound was tested for antibacterial activity against gram negative Escherichia coli CSH2/RE45; type: functional
Escherichia coli [9] = experiment: Compound was tested for antibacterial activity against gram negative Escherichia coli ML4707; type: functional
Streptococcus pyogenes = experiment: Compound was tested for antibacterial activity against gram positive Streptococcus pyogenes cook
Enterobacter cloacae = experiment: Compound was tested for antibacterial activity against gram negative Enterobacter cloacae Nek39; type: functional
Proteus mirabilis = experiment: Compound was tested for antibacterial activity against gram negative Proteus mirabilis JY-10; type: functional
Citrobacter freundii [10] = experiment: Compound was tested for antibacterial activity against gram negative Citrobacter freundii No.7; type: functional
Proteus vulgaris [11] = experiment: Compound was tested for antibacterial activity against gram negative Proteus vulgaris No.33; type: functional
Klebsiella oxytoca = experiment: Compound was tested for antibacterial activity against gram negative Klebsiella oxytoca GN 10650; type: functional
Staphylococcus aureus [12] = experiment: Compound was tested for antibacterial activity against gram positive Staphylococcus aureus FDA 209P JC-1; type: functional
Citrobacter freundii [13] = experiment: Compound was tested for antibacterial activity against gram negative Citrobacter freundii KP-29; type: functional
Pseudomonas aeruginosa [14] = experiment: Compound was tested for antibacterial activity against gram negative Pseudomonas aeruginosa AK109; type: functional
Serratia marcescens = experiment: Compound was tested for antibacterial activity against gram negative Serratia marcescens No.16-2; type: functional
Pseudomonas aeruginosa [15] = experiment: Compound was tested for antibacterial activity against gram negative Pseudomonas aeruginosa K-13; type: functional
Burkholderia cepacia = experiment: Compound was tested for antibacterial activity against gram negative Burkholderia cepacia 23; type: functional
Proteus vulgaris [16] = experiment: Compound was tested for antibacterial activity against gram negative Proteus vulgaris KS-134; type: functional
Pseudomonas aeruginosa [17] = experiment: Compound was tested for antibacterial activity against gram negative Pseudomonas aeruginosa KP-254; type: functional
Klebsiella pneumoniae [18] = experiment: Compound was tested for antibacterial activity against gram negative Klebsiella pneumoniae KC-1; type: functional
Staphylococcus aureus [19] = experiment: Compound was tested for antibacterial activity against gram positive Staphylococcus aureus smith; type: functional
[20] = Enterococcus faecalis, read-out: MIC
[21] = Pseudomonas aeruginosa, read-out: MIC
[22] = Acinetobacter calcoaceticus, read-out: MIC
[23] = Staphylococcus aureus, read-out: MIC
[24] = Escherichia coli, read-out: MIC
[25] = Klebsiella pneumoniae, read-out: MIC
[26] = Streptococcus pyogenes, read-out: MIC
[27] = Enterobacter cloacae, read-out: MIC
[28] = Proteus mirabilis, read-out: MIC
[29] = Citrobacter freundii, read-out: MIC
[30] = Proteus vulgaris, read-out: MIC
[31] = Klebsiella oxytoca, read-out: MIC
[32] = Serratia marcescens, read-out: MIC
[33] = Burkholderia cepacia, read-out: MIC

COc1c(N2C[C@@H](CN)[C@H](C(F)(F)F)C2)c(F)cc2c(=O)c(C(=O)O)cn(C3CC3)c12.Cl
MIC (Enterococcus faecalis): 0.025 µg/mL | MIC (Pseudomonas aeruginosa [1]): 1.56 µg/mL | MIC [2]: 0.1 µg/mL | MIC (Staphylococcus aureus [3]): <0.006 µg/mL | MIC (Staphylococcus aureus [4]): 0.39 µg/mL | MIC (Escherichia coli [5]): 0.39 µg/mL | MIC (Klebsiella pneumoniae [6]): 0.1 µg/mL | MIC (Escherichia coli [7]): 0.025 µg/mL | MIC (Escherichia coli [8]): 0.39 µg/mL | MIC (Escherichia coli [9]): 0.025 µg/mL | MIC (Streptococcus pyogenes): 0.013 µg/mL | MIC (Enterobacter cloacae): 0.39 µg/mL | MIC (Proteus mirabilis): 0.05 µg/mL | MIC (Citrobacter freundii [10]): 0.78 µg/mL | MIC (Proteus vulgaris [11]): 0.05 µg/mL | MIC (Klebsiella oxytoca): 0.1 µg/mL | MIC (Staphylococcus aureus [12]): 0.025 µg/mL | MIC (Citrobacter freundii [13]): 12.5 µg/mL | MIC (Pseudomonas aeruginosa [14]): 1.56 µg/mL | MIC (Serratia marcescens): 0.39 µg/mL | MIC (Pseudomonas aeruginosa [15]): 12.5 µg/mL | MIC (Burkholderia cepacia): 1.56 µg/mL | MIC (Proteus vulgaris [16]): 50 µg/mL | MIC (Pseudomonas aeruginosa [17]): 100 µg/mL | MIC (Klebsiella pneumoniae [18]): 0.05 µg/mL

COc1c(N2C[C@@H](CO)[C@H](C(F)(F)F)C2)c(F)cc2c(=O)c(C(=O)O)cn(C3CC3)c12
MIC (Enterococcus faecalis; [20]): 0.2 µg/mL (≈ 0.45 µM) | MIC (Pseudomonas aeruginosa [1]; [21]): 3.13 µg/mL (≈ 7.04 µM) | MIC [2, 22]: 0.78 µg/mL (≈ 1.76 µM) | MIC (Staphylococcus aureus [3]; [23]): 0.013 µg/mL (≈ 0.0293 µM) | MIC (Staphylococcus aureus [4]; [23]): 0.78 µg/mL (≈ 1.76 µM) | MIC (Escherichia coli [5]; [24]): 6.25 µg/mL (≈ 14.1 µM) | MIC (Klebsiella pneumoniae [6]; [25]): 3.13 µg/mL (≈ 7.04 µM) | MIC (Escherichia coli [7]; [24]): 0.39 µg/mL (≈ 0.878 µM) | MIC (Escherichia coli [8]; [24]): 6.25 µg/mL (≈ 14.1 µM) | MIC (Escherichia coli [9]; [24]): 0.2 µg/mL (≈ 0.45 µM) | MIC (Streptococcus pyogenes; [26]): 0.2 µg/mL (≈ 0.45 µM) | MIC (Enterobacter cloacae; [27]): 3.13 µg/mL (≈ 7.04 µM) | MIC (Proteus mirabilis; [28]): 0.2 µg/mL (≈ 0.45 µM) | MIC (Citrobacter freundii [10]; [29]): 12.5 µg/mL (≈ 28.1 µM) | MIC (Proteus vulgaris [11]; [30]): 0.78 µg/mL (≈ 1.76 µM) | MIC (Klebsiella oxytoca; [31]): 1.56 µg/mL (≈ 3.51 µM) | MIC (Staphylococcus aureus [19]): ≤ 6 ng/mL | MIC (Staphylococcus aureus [12]; [23]): 0.025 µg/mL (≈ 0.0563 µM) | MIC (Citrobacter freundii [13]; [29]): > 100 µg/mL | MIC (Pseudomonas aeruginosa [14]; [21]): 6.25 µg/mL (≈ 14.1 µM) | MIC (Serratia marcescens; [32]): 6.25 µg/mL (≈ 14.1 µM) | MIC (Pseudomonas aeruginosa [15]; [21]): 25 µg/mL (≈ 56.3 µM) | MIC (Burkholderia cepacia; [33]): 3.13 µg/mL (≈ 7.04 µM) | MIC (Proteus vulgaris [16]; [30]): 100 µg/mL (≈ 225 µM) | MIC (Pseudomonas aeruginosa [17]; [21]): > 100 µg/mL | MIC (Klebsiella pneumoniae [18]; [25]): 1.56 µg/mL (≈ 3.51 µM)

COc1c(N2C[C@H](CO)[C@H](C(F)(F)F)C2)c(F)cc2c(=O)c(C(=O)O)cn(C3CC3)c12
MIC (Enterococcus faecalis; [20]): 0.1 µg/mL (≈ 0.225 µM) | MIC (Pseudomonas aeruginosa [1]; [21]): 3.13 µg/mL (≈ 7.04 µM) | MIC [2, 22]: 0.2 µg/mL (≈ 0.45 µM) | MIC (Staphylococcus aureus [3]; [23]): ≤ 0.006 µg/mL | MIC (Staphylococcus aureus [4]; [23]): 0.39 µg/mL (≈ 0.878 µM) | MIC (Escherichia coli [5]; [24]): 3.13 µg/mL (≈ 7.04 µM) | MIC (Klebsiella pneumoniae [6]; [25]): 0.78 µg/mL (≈ 1.76 µM) | MIC (Escherichia coli [7]; [24]): 0.39 µg/mL (≈ 0.878 µM) | MIC (Escherichia coli [8]; [24]): 3.13 µg/mL (≈ 7.04 µM) | MIC (Escherichia coli [9]; [24]): 0.2 µg/mL (≈ 0.45 µM) | MIC (Streptococcus pyogenes; [26]): 0.05 µg/mL (≈ 0.113 µM) | MIC (Enterobacter cloacae; [27]): 1.56 µg/mL (≈ 3.51 µM) | MIC (Proteus mirabilis; [28]): 0.1 µg/mL (≈ 0.225 µM) | MIC (Citrobacter freundii [10]; [29]): 6.25 µg/mL (≈ 14.1 µM) | MIC (Proteus vulgaris [11]; [30]): 0.39 µg/mL (≈ 0.878 µM) | MIC (Klebsiella oxytoca; [31]): 0.78 µg/mL (≈ 1.76 µM) | MIC (Staphylococcus aureus [19]): ≤ 6 ng/mL | MIC (Staphylococcus aureus [12]; [23]): 0.013 µg/mL (≈ 0.0293 µM) | MIC (Citrobacter freundii [13]; [29]): > 100 µg/mL | MIC (Pseudomonas aeruginosa [14]; [21]): 3.13 µg/mL (≈ 7.04 µM) | MIC (Serratia marcescens; [32]): 3.13 µg/mL (≈ 7.04 µM) | MIC (Pseudomonas aeruginosa [15]; [21]): 25 µg/mL (≈ 56.3 µM) | MIC (Burkholderia cepacia; [33]): 1.56 µg/mL (≈ 3.51 µM) | MIC (Proteus vulgaris [16]; [30]): 100 µg/mL (≈ 225 µM) | MIC (Pseudomonas aeruginosa [17]; [21]): > 100 µg/mL | MIC (Klebsiella pneumoniae [18]; [25]): 0.39 µg/mL (≈ 0.878 µM)

COc1c(N2CC[C@@](CN)(C(F)(F)F)C2)c(F)cc2c(=O)c(C(=O)O)cn(C3CC3)c12.Cl
MIC (Enterococcus faecalis; [20]): 0.78 µg/mL | MIC (Pseudomonas aeruginosa [1]; [21]): > 12.5 µg/mL | MIC [2, 22]: 1.56 µg/mL | MIC (Staphylococcus aureus [3]; [23]): 0.1 µg/mL | MIC (Staphylococcus aureus [4]; [23]): 6.25 µg/mL | MIC (Escherichia coli [5]; [24]): > 12.5 µg/mL | MIC (Klebsiella pneumoniae [6]; [25]): 6.25 µg/mL | MIC (Escherichia coli [7]; [24]): 3.13 µg/mL | MIC (Escherichia coli [8]; [24]): > 12.5 µg/mL | MIC (Escherichia coli [9]; [24]): 0.05 µg/mL | MIC (Streptococcus pyogenes; [26]): 0.78 µg/mL | MIC (Enterobacter cloacae; [27]): 12.5 µg/mL | MIC (Proteus mirabilis; [28]): 0.78 µg/mL | MIC (Citrobacter freundii [10]; [29]): > 12.5 µg/mL | MIC (Proteus vulgaris [11]; [30]): 3.13 µg/mL | MIC (Klebsiella oxytoca; [31]): 6.25 µg/mL | MIC (Staphylococcus aureus [19]): 50 ng/mL | MIC (Staphylococcus aureus [12]; [23]): 0.2 µg/mL | MIC (Citrobacter freundii [13]; [29]): > 12.5 µg/mL | MIC (Pseudomonas aeruginosa [14]; [21]): > 12.5 µg/mL | MIC (Serratia marcescens; [32]): > 12.5 µg/mL | MIC (Pseudomonas aeruginosa [15]; [21]): > 12.5 µg/mL | MIC (Burkholderia cepacia; [33]): 3.13 µg/mL | MIC (Proteus vulgaris [16]; [30]): > 12.5 µg/mL | MIC (Pseudomonas aeruginosa [17]; [21]): > 12.5 µg/mL | MIC (Klebsiella pneumoniae [18]; [25]): 1.56 µg/mL

COc1c(N2C[C@@H](CN)[C@H](C)C2)c(F)cc2c(=O)c(C(=O)O)cn(C3CC3)c12.Cl
MIC (Enterococcus faecalis; [20]): 0.05 µg/mL | MIC (Pseudomonas aeruginosa [1]; [21]): 0.78 µg/mL | MIC [2, 22]: 0.2 µg/mL | MIC (Staphylococcus aureus [3]; [23]): ≤ 0.006 µg/mL | MIC (Staphylococcus aureus [4]; [23]): 0.2 µg/mL | MIC (Escherichia coli [5]; [24]): 0.39 µg/mL | MIC (Klebsiella pneumoniae [6]; [25]): 0.1 µg/mL | MIC (Escherichia coli [7]; [24]): 0.05 µg/mL | MIC (Escherichia coli [8]; [24]): 0.39 µg/mL | MIC (Escherichia coli [9]; [24]): 0.025 µg/mL | MIC (Streptococcus pyogenes; [26]): ≤ 0.006 µg/mL | MIC (Enterobacter cloacae; [27]): 0.39 µg/mL | MIC (Proteus mirabilis; [28]): 0.05 µg/mL | MIC (Citrobacter freundii [10]; [29]): 0.39 µg/mL | MIC (Proteus vulgaris [11]; [30]): 0.1 µg/mL | MIC (Klebsiella oxytoca; [31]): 0.1 µg/mL | MIC (Staphylococcus aureus [19]): ≤ 6 ng/mL | MIC (Staphylococcus aureus [12]; [23]): 0.013 µg/mL | MIC (Citrobacter freundii [13]; [29]): 12.5 µg/mL | MIC (Pseudomonas aeruginosa [14]; [21]): 0.78 µg/mL | MIC (Serratia marcescens; [32]): 0.39 µg/mL | MIC (Pseudomonas aeruginosa [15]; [21]): 6.25 µg/mL | MIC (Burkholderia cepacia; [33]): 1.56 µg/mL | MIC (Proteus vulgaris [16]; [30]): 50 µg/mL | MIC (Pseudomonas aeruginosa [17]; [21]): 100 µg/mL | MIC (Klebsiella pneumoniae [18]; [25]): 0.1 µg/mL
